US20100040566A1, “EMULSION” (Riemann Trading ApS, priority 2006, published 2010)

Assay: Determination of photo stability (Xenon arc lamp irradiation, HPLC of UV-filters)
Type: physicochemical
Details: for photo stability (in words): 3 MED/2 h irradiation; for Content of UV-Filter Substances, After irradiation [3MED/2 h], Found [%]: Xenon arc lamp, 3 MED after two hours, HPLC; for Content of UV-Filter Substances, Before irradiation, Found [%]: in sample prepared as in Example 1, HPLC; for Content of UV-Filter Substances, After irradiation [3MED/2 h], [%] rel.: relative to content before irradiation
Excerpt: The test sample are weighed and distributed evenly and homogeneously with a brush onto the marked area of a glass plate.
For the Irradiation we use a Xenon arc lamp because the continuous spectrum in the UV-region is near—identical to that of—natural light. The lamp is turned on approximately one hour before Irradiation.
The glass plate Is positioned under the lamp so that the square with the test sample is maximally illuminated.
The distance (lamp-glass plate) is acquired with the aid of a calibrated hand radiometer (PMA 2100) with UV-B detector. The radiant Intensity of the lamp on the sample is set up so that an Irradiation dose of 3 MED (Minimal Erythemal Dose) is given after two hours.
In order to ascertain to which extent each of the Individual UV-filters in the tested formulations has been photometrically degraded, they are analytically quantified before and after irradiation.
The instrumental-analytical method used is HPLC
Sample is prepared as described in Example 1

Structure (SMILES): CCCCC(CC)COC(=O)C(C#N)=C(c1ccccc1)c1ccccc1 (stereo not drawn) [Octocrylene]
- photo stability (in words): very good value of photo stability
- Content of UV-Filter Substances, After irradiation [3MED/2 h], Found [%]: 9.35%
- Content of UV-Filter Substances, Before irradiation, Found [%]: 9.98%
- Content of UV-Filter Substances, After irradiation [3MED/2 h], [%] rel.: 93.7%

Structure (SMILES): CCCCC(CC)COC(=O)C=Cc1ccc(OC)cc1 (stereo not drawn) [Ethylhexyl Methoxycinnamate]
- photo stability (in words): relatively strong degradation

Structure (SMILES): CCCCCCOC(=O)c1ccccc1C(=O)c1ccc(N(CC)CC)cc1O [Diethylamino Hydroxybenzoyl Hexyl Benzoate]
- photo stability (in words): very good value of photo stability
- Content of UV-Filter Substances, After irradiation [3MED/2 h], Found [%]: 1.21%
- Content of UV-Filter Substances, Before irradiation, Found [%]: 1.29%
- Content of UV-Filter Substances, After irradiation [3MED/2 h], [%] rel.: 93.8%
